This note sets out measurements from patent US8778966B2, “Quinolinone derivatives as PARP and tank inhibitors” (Janssen Pharmaceutica, NV, priority 2007, dated 2014).

In one assay the target is T1, TANK-2 enzyme (Homo sapiens, UniProt Q9H2K2).
T1 construct: made in house
T1 sequence (Q9H2K2 1-1166): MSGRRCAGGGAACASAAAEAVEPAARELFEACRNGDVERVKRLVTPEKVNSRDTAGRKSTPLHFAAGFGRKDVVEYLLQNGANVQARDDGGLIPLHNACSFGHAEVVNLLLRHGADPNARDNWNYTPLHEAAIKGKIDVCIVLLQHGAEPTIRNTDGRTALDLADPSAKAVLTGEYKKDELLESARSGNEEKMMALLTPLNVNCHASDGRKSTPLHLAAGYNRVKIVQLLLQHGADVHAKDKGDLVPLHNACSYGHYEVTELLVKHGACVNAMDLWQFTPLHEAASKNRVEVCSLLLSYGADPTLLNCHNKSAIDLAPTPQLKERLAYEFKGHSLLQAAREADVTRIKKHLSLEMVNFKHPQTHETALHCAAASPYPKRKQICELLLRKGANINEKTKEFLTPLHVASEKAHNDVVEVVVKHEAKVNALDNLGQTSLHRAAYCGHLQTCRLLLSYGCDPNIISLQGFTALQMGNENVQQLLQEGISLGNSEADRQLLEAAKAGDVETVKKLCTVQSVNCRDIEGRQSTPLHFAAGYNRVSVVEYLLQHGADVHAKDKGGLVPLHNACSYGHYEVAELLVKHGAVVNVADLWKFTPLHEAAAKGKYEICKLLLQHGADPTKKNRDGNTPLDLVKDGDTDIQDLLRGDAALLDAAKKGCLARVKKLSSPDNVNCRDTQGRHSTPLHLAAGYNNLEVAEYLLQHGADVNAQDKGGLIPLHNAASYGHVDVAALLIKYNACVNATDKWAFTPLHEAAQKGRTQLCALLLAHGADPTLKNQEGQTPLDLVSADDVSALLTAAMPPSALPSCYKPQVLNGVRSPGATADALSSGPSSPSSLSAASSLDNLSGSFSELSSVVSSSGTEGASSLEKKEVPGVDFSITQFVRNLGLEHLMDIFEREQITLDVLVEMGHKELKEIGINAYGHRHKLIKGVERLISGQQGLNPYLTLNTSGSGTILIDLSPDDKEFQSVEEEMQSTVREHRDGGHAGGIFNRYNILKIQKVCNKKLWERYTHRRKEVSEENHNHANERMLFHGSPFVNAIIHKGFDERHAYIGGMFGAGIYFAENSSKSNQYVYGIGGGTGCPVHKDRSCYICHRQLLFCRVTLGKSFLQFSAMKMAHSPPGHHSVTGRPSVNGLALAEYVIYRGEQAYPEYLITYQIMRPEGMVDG
Briefly: In vitro Scintillation Proximity Assay (SPA) for TANK-2 inhibitory activity. Conditions: read-out: in vitro SPA assay TANK-2 pIC50 (converted). The format is biochemical. The essentials:
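TANK-2 (8 μg/ml final) auto-poly(ADP-ribosyl)ation with [3H]-NAD+/NAD donor was run in Ni flash plates in Tris/HCl pH 7.4 buffer with DTT and MgCl2, 120 min at room temperature, then stopped with excess NAD and scintillation-counted. Blank-corrected cpm was expressed as % of enzyme control, and IC50 was linearly interpolated and reported as pIC50.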
A general note: Scintillation proximity formats need no separation of bound from free tracer.

A further assay relates to PC3 cells. Briefly: EB1 Comet (microtubule disruption) assay. It is filed as cell-based, human. The following applies: 1 hour treatment; for minimal effective concentration: Homo sapiens, PC-3, 1 h, read-out: EB1 pLAC (converted). The essentials:
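PC3 human prostate cancer cells exposed to compound for 1 h at 37 °C (0.6% DMSO final), methanol-fixed, immunostained for Eb1 and imaged at 20×. Value is the lowest active concentration (LAC): the concentration at which Eb1 foci are absent in at least 50% of treated cells.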

Regarding `CCc1cc2ccc(C(C)(C#N)Cc3cccc(S(C)(=O)=O)c3)cc2[nH]c1=O` (centres unmarked) [Compound 129], the IC50 at TANK-2 enzyme is 126 nM. Besides, the minimal effective concentration in the assay on PC3 cells is 1 µM.
With `CCc1cc2ccc(C(C)(C#N)Cc3cc(F)cc(F)c3)cc2[nH]c1=O` (centres unmarked) [Compound 128], the IC50 at TANK-2 enzyme is 158 nM. For the same compound, in the assay on PC3 cells, the “EB1 pLAC” value is given as 7.5.
With `CCc1cc2ccc(C(C)(C#N)Cc3ccc4c(c3)OCCO4)cc2[nH]c1=O` (centres unmarked) [Compound 124], the IC50 on TANK-2 enzyme is 100 nM. In addition, the minimal effective concentration in the assay on PC3 cells is 1 µM.
The corresponding values for `CCc1cc2ccc(C(C)(C#N)Cc3c(Cl)cccc3Br)cc2[nH]c1=O` (centres unmarked) [Compound 136] are 50.1 nM and 1 µM.
In the same order, the values of `CCc1cc2ccc(C(C)(C#N)Cc3ccccc3C)cc2[nH]c1=O` (centres unmarked) [Compound 105] are 20 nM and 0.316 µM.
For the compound `CCc1cc2ccc(C(C)(C#N)Cc3c(F)c(F)c(F)c(F)c3F)cc2[nH]c1=O` (centres unmarked) [Compound 116], the IC50 at TANK-2 enzyme was 79.4 nM. In addition, in the assay on PC3 cells, the minimal effective concentration was 0.316 µM.
In the same order, the values of `CCc1cc2ccc(C(C)(C#N)Cc3ccc(OC)cc3)cc2[nH]c1=O` (centres unmarked) [Compound 119] are 31.6 nM and 3.16 µM.
`CCc1cc2ccc(C(C)(C#N)Cc3cc(F)cc(Cl)c3)cc2[nH]c1=O` (centres unmarked) [Compound 126]: on TANK-2 enzyme, the IC50 was 100 nM. The minimal effective concentration in the assay with PC3 cells was 0.316 µM.
In the same order, the values of `CCc1cc2ccc(C(C)(C#N)Cc3cccc(F)c3)cc2[nH]c1=O` (centres unmarked) [Compound 112] are 25.1 nM and 1 µM.
As for `CCc1cc2ccc(C(C)(C#N)Cc3cc(C)cc(C)c3)cc2[nH]c1=O` (centres unmarked) [Compound 125], the IC50 at TANK-2 enzyme was 100 nM. Also, in the assay on PC3 cells, the minimal effective concentration is 0.1 µM.
Consider `CCc1cc2ccc(C(C)(C#N)Cc3ccc4ccccc4c3)cc2[nH]c1=O` (centres unmarked) [Compound 122], for which the IC50 at TANK-2 enzyme is 100 nM. In the assay on PC3 cells, the minimal effective concentration is 1 µM.
In the same order, the values of `CCc1cc2ccc(C(C)(C#N)Cc3cccc(Cl)c3Cl)cc2[nH]c1=O` (centres unmarked) [Compound 121] are 79.4 nM and 0.316 µM.
In the same order, the values of `CCOc1ccccc1OCCC(C)(C#N)c1ccc2cc(CC)c(=O)[nH]c2c1` (centres unmarked) [Compound 142] are 158 nM and 1 µM.
In the case of `CCc1cc2ccc(C(C)(C#N)Cc3ccc(Br)cc3)cc2[nH]c1=O` (centres unmarked) [Compound 118], the IC50 at TANK-2 enzyme was 31.6 nM. Further, the minimal effective concentration with PC3 cells is 3.16 µM.
The corresponding values for `CCc1cc2ccc(C(C)(C#N)CC3CN(C)c4ccccc4O3)cc2[nH]c1=O` (centres unmarked) [Compound 156] are 398 nM and 1 µM.
With `CCc1cc2ccc(C(C)(C#N)CCOc3ccc(OC)cc3)cc2[nH]c1=O` (centres unmarked) [Compound 147], at TANK-2 enzyme, the IC50 was 79.4 nM. The minimal effective concentration with PC3 cells is 1 µM.
The corresponding values for `CCc1cc2ccc(C(C)(C#N)CCOc3ccccc3C)cc2[nH]c1=O` (centres unmarked) [Compound 148] are 100 nM and 0.316 µM.
As for `CCc1cc2ccc(C(C)(C#N)Cc3ccccc3Br)cc2[nH]c1=O` (centres unmarked) [Compound 104], the IC50 on TANK-2 enzyme is 63.1 nM. In addition, the minimal effective concentration in the assay on PC3 cells was 0.316 µM.
Regarding `CCc1cc2ccc(C(C)(C#N)Cc3ccc(F)cc3Br)cc2[nH]c1=O` (centres unmarked) [Compound 139], the IC50 on TANK-2 enzyme was 79.4 nM. Further, the minimal effective concentration in the assay with PC3 cells was 0.316 µM.
As for `CCc1cc2ccc(C(C)(C#N)Cc3cccc(C(F)(F)F)c3)cc2[nH]c1=O` (centres unmarked) [Compound 109], the IC50 on TANK-2 enzyme was 79.4 nM. The minimal effective concentration in the assay with PC3 cells was 3.16 µM.
The corresponding values for `CCc1cc2ccc(C(C)(C#N)Cc3cccc(OC(F)(F)F)c3)cc2[nH]c1=O` (centres unmarked) [Compound 110] are 126 nM and 0.1 µM.
The corresponding values for `CCc1cc2ccc(C(C)(C#N)Cc3cccc(C(F)(F)F)c3F)cc2[nH]c1=O` (centres unmarked) [Compound 134] are 126 nM and 1 µM.
In the same order, the values of `CCc1cc2ccc(C(C)(C#N)Cc3cccc(C)c3)cc2[nH]c1=O` (centres unmarked) [Compound 107] are 31.6 nM and 1 µM.
Turning to `CCc1cc2ccc(C(C)(C#N)Cc3ccccc3F)cc2[nH]c1=O` (centres unmarked) [Compound 106], the IC50 on TANK-2 enzyme was 50.1 nM. Moreover, the minimal effective concentration in the assay on PC3 cells was 0.316 µM.
In the same order, the values of `CCc1cc2ccc(C(C)(C#N)Cc3cccc(OC)c3)cc2[nH]c1=O` (centres unmarked) [Compound 113] are 20 nM and over 10 µM.
With `CCc1cc2ccc(C(C)(C#N)CCOc3ccc(F)cc3)cc2[nH]c1=O` (centres unmarked) [Compound 144], on TANK-2 enzyme, the IC50 was 100 nM. In the assay with PC3 cells, the minimal effective concentration was 0.316 µM.
Consider `CCc1cc2ccc(C(C)(C#N)Cc3cccc(CCC#N)c3)cc2[nH]c1=O` (centres unmarked) [Compound 165], for which the IC50 on TANK-2 enzyme is 79.4 nM. Moreover, the minimal effective concentration with PC3 cells is 1 µM.
In the same order, the values of `CCc1cc2ccc(C(C)(C#N)Cc3cccc(Cl)c3)cc2[nH]c1=O` (centres unmarked) [Compound 140] are 126 nM and 0.1 µM.
In the same order, the values of `CCc1cc2ccc(C(C)(C#N)CC3COc4ccccc4O3)cc2[nH]c1=O` (single isomer, unassigned) [Compound 48] are 200 nM and 1 µM.
In the same order, the values of `CCc1cc2ccc(C(C)(C#N)CCOc3cccc(Cl)c3)cc2[nH]c1=O` (centres unmarked) [Compound 151] are 200 nM and 1 µM.
Turning to `CCc1cc2ccc(C(C)(C#N)Cc3cccc(C)c3F)cc2[nH]c1=O` (centres unmarked) [Compound 132], the IC50 at TANK-2 enzyme is 63.1 nM. The minimal effective concentration in the assay with PC3 cells is 0.316 µM.
For `CCc1cc2ccc(C(C)(C#N)Cc3ccc(F)cc3F)cc2[nH]c1=O` (centres unmarked) [Compound 137], the IC50 on TANK-2 enzyme was 63.1 nM. In addition, in the assay on PC3 cells, the minimal effective concentration is 1 µM.
As for `CCc1cc2ccc(C(C)(C#N)Cc3cccc(N)c3)cc2[nH]c1=O` (centres unmarked) [Compound 15], the IC50 at TANK-2 enzyme was 100 nM. In the assay on PC3 cells, the minimal effective concentration is 3.16 µM.
Regarding `CCc1cc2ccc(C(C)(C#N)Cc3cccc(F)c3F)cc2[nH]c1=O` (centres unmarked) [Compound 120], at TANK-2 enzyme, the IC50 was 50.1 nM. Also, the minimal effective concentration in the assay on PC3 cells is 0.316 µM.
As to `CCc1cc2ccc(C(C)(C#N)CCOc3ccc(Cl)cc3Cl)cc2[nH]c1=O` (centres unmarked) [Compound 154], the IC50 on TANK-2 enzyme was 200 nM. The minimal effective concentration with PC3 cells is 0.1 µM.
For the compound `CCc1cc2ccc(C(C)(C#N)CCOc3ccccc3)cc2[nH]c1=O` (centres unmarked) [Compound 145], the IC50 on TANK-2 enzyme is 50.1 nM. For the same compound, in the assay with PC3 cells, the minimal effective concentration is 1 µM.
In the same order, the values of `CCc1cc2ccc(C(C)(C#N)Cc3c(F)cccc3F)cc2[nH]c1=O` (centres unmarked) [Compound 138] are 63.1 nM and 1 µM.
`CCc1cc2ccc(C(C)(C#N)Cc3ccc4c(c3)nnn4C)cc2[nH]c1=O` (centres unmarked) [Compound 123]: the IC50 on TANK-2 enzyme was 100 nM. The minimal effective concentration with PC3 cells was 3.16 µM.
Consider `CCc1cc2ccc(C(C)(C#N)Cc3ccc(OC(F)(F)F)cc3)cc2[nH]c1=O` (centres unmarked) [Compound 114], for which the IC50 on TANK-2 enzyme was 501 nM. Moreover, in the assay on PC3 cells, the minimal effective concentration was 1 µM.
The corresponding values for `CCc1cc2ccc(C(C)(C#N)Cc3cc(Cl)cc(Cl)c3)cc2[nH]c1=O` (centres unmarked) [Compound 141] are 126 nM and 0.1 µM.
In the same order, the values of `CCc1cc2ccc(C(C)(C#N)Cc3cccc(C(=O)OC)c3)cc2[nH]c1=O` (centres unmarked) [Compound 12] are 100 nM and 0.0316 µM.
Consider `Cc1cc2ccc([C@@](C)(C#N)CCOc3ccccc3)cc2[nH]c1=O` (single isomer, unassigned) [Compound 164], for which, on TANK-2 enzyme, the IC50 is 631 nM. Further, the minimal effective concentration in the assay with PC3 cells is 0.316 µM.
In the same order, the values of `CCc1cc2ccc(C(C)(C#N)CCOc3ccc(C#N)cc3)cc2[nH]c1=O` (centres unmarked) [Compound 161] are 158 nM and 0.316 µM.
